Test results published in patent US20070117818A1, “Pyrimidinone compounds useful as kinase inhibitors” (priority 2004, published 2007).

Biological target: T1, hYAK3 (Homo sapiens, UniProt O43781)
T1 construct: made in house; host or cells: baculovirus expression system in Sf9 cells
T1 sequence (O43781 124-526): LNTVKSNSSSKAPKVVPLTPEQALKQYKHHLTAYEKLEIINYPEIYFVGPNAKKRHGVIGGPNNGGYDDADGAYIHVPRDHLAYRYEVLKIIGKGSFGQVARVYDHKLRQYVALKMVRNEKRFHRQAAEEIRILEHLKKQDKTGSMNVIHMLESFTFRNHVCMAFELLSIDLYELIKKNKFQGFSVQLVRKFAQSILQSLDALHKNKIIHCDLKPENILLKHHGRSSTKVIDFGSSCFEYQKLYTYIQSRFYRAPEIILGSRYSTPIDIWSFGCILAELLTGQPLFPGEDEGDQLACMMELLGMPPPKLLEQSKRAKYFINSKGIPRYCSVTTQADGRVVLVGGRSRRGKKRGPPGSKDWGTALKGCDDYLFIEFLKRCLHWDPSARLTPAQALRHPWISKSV
Assay: YAK3 Scintillation Proximity Assay using Ser164 of myelin basic protein as phosphoacceptor (kinase assay of purified hYAK3)
Assay type: biochemical
Conditions: purified GST-hYak3-His6 (aa 124-526), 0.001 mM ATP, 4 μM Ser164 peptide, 2 hours at room temperature; pIC50 = −log10(IC50)
Experimental: Substrate phosphorylation assays were carried out as follows:
YAK3 Scintillation Proximity Assays Using Ser164 of Myelin Basic Protein as the phosphoacceptor
The source of Ser164 substrate oeptide The biotinylated Ser164, S164A peptide (Biotinyl-LGGRDSRAGS*PMARR-OH), sequence derived from the C-terminus of bovine myelin basic protein (MBP) with Ser162 substituted as Ala162, was purchased from California Peptide Research Inc. (Napa, Calif.), and its purity was determined by HPLC. Phosphorylation occurs at position 164 (marked S* above). The calculated molecular mass of the peptide was 2166 dalton. Solid sample was dissolved at 10 mM in DMSO, aliquoted, and stored at −20° C. until use.
hYAK3: Glutathione-S-Transferase (GST)-hYak3-His6 containing amino acid residues 124-526 of human YAK3 (aa 124-526 of SEQ ID NO 2. in U.S. Pat. No. 6,323,318) was purified from baculovirus expression system in Sf9 cells using Glutathione Sepharose 4B column chromatography followed by Ni-NTA-Agarose column chromatography. Purity greater than 65% typically was achieved. Samples, in 50 mM Tris, 150 mM NaCl, 10% glycerol, 0.1% Triton, 250 mM imidazole, 10 mM β-mercapto ethanol, pH 8.0. were stored at −80° C. until use.
Kinase assay of purified hYAK3: Assays were performed in 96 well (Costar, Catalog No. 3789) or 384 well plates (Costar, Catalog No. 3705). Reaction (in 20, 25, or 40 μl volume) mix contained in final concentrations 25 mM Hepes buffer, pH 7.4; 10 mM MgCl2; 10 mM β-mercapto ethanol; 0.0025% Tween-20; 0.001 mMATP, 0.1 μCi of [γ-^33P]ATP; purified hYAK3 (7-14 ng/assay; 4 nM final); and 4 μM Ser164 peptide. Compounds, titrated in DMSO, were evaluated at concentrations ranging from 50 μM to 0.5 nM. […] Reactions were incubated for 2 hours at room temperature and were stopped by a 75 ul addition of 0.19 μg Streptavidin Scintillation Proximity beads (Amersham Pharmacia Biotech, Catalog No. RPNQ 0007) in PBS, pH 7.4, 10 mM EDTA, 0.1% Triton X-100, 1 mM ATP. Under the assay conditions defined above, the Km(apparent) for ATP was determined to be 7.2+-2.4 μM.

| Structure (SMILES) | IC50 |
| --- | --- |
| NS(=O)(=O)c1cccc(Nc2nc(-c3ccc4nc(NC(=O)c5cccs5)[nH]c4c3)cc(=O)[nH]2)c1 [Ig, N-[5-(2-{[3-(Aminosulfonyl)phenyl]amino}-6-oxo-1,6-dihydro-4-pyrimidinyl)-1H-benzimidazol-2-yl]-2-thiophenecarboxamide] | 1.02 to 10 nM |
| COCCNc1nc(-c2ccc3nc(NC(=O)c4cccs4)[nH]c3c2)cc(=O)[nH]1 [Il, N-[5-(2-{[2-(Methyloxy)ethyl]amino}-6-oxo-1,6-dihydro-4-pyrimidinyl)-1H-benzimidazol-2-yl]-2-thiophenecarboxamide] | 10.2 to 100 nM |
| O=C(Nc1nc2ccc(-c3cc(=O)[nH]c(NCCc4ccc(Cl)cc4Cl)n3)cc2[nH]1)c1cccs1 [Ip, N-[5-(2-{[2-(2,4-Dichlorophenyl)ethyl]amino}-6-oxo-1,6-dihydro-4-pyrimidinyl)-1H-benzimidazol-2-yl]-2-thiophenecarboxamide] | 102 to 1000 nM |
